Measured values reported in patent publication US9949483B2, “Pesticidally active heterocyclic derivatives with sulphur containing substituents” (Syngenta Participations AG, priority 2014, dated 2018).

What was measured:
Type in all cases: in vivo
[1] = test system: Euschistus heros (Neotropical Brown Stink Bug); assay: Example B3: Activity against Euschistus heros, soybean leaf sprayed; conditions: 120 h, application rate of 200 ppm, N-2 nymphs, 5 days after infestation, read-out: effect in at least one of the two categories (mortality or growth inhibition)
Description: Soybean leaf on agar in 24-well microtiter plates were sprayed with aqueous test solutions prepared from 10′000 ppm DMSO stock solutions. After drying the leaf were infested with N-2 nymphs. The samples were assessed for growth inhibition in comparison to untreated samples 5 days after infestation.

[2] = test system: Tetranychus urticae (Two-Spotted Spider Mite); assay: Example B10: Activity against Tetranychus urticae, feeding/contact activity; conditions: 192 h
Description: Bean leaf discs on agar in 24-well microtiter plates were sprayed with aqueous test solutions prepared from 10′000 ppm DMSO stock solutions. After drying the leaf discs were infested with a mite population of mixed ages. The samples were assessed for mortality on mixed population (mobile stages) 8 days after infestation.

[3] = test system: Aedes aegypti (Yellow Fever Mosquito); assay: whole plant or invertebrate; conditions: 48 h, test rate of 5 ppm, L2 larvae, incubation period of 2 days, read-out: effect in at least one of the two categories (mortality or growth inhibition)
Description: 10 to 15 Aedes larvae (L2) together with a nutrition mixture were placed in 96-well microtiter plates. Test compounds were pipetted into the wells. After an incubation period of 2 days insects were assessed for mortality and growth inhibition.

[4] = test system: Mysus persicae (Green Peach Aphid); assay: Example B6: Activity against Mysus persicae, sucrose solution under Parafilm; conditions: Myzus persicae, 120 h; test rate of 12 ppm; mixed with sucrose solution; 5 days after infestation
Description: Test compounds from 10′000 ppm DMSO stock solutions were applied by pipette into 24-well microtiter plates and mixed with sucrose solution. The plates were closed with a stretched Parafilm. A plastic stencil with 24 holes was placed onto the plate and infested pea seedlings were placed directly on the Parafilm. The infested plate was closed with a gel blotting paper and another plastic stencil and then turned upside down. The samples were assessed for mortality 5 days after infestation.

[5] = test system: Spodoptera littoralis (Egyptian Cotton Leaf Worm); assay: Example B9: Activity against Spodoptera littoralis, lettuce grown on treated agar; conditions: 144 h, test rate of 12.5 ppm, compound mixed with agar, taken up by lettuce roots, 6 days after infestation, read-out: effect in at least one of the three categories (mortality, anti-feedancy, or growth inhibition)
Text: Test compounds were applied by pipette from 10′000 ppm DMSO stock solutions into 24-well plates and mixed with agar. Lettuce seeds were placed on the agar and the multi well plate was closed by another plate which contains also agar. After 7 days the roots have absorbed the compound and the lettuce has grown into the lid plate. The lettuce leafs were now cut off into the lid plate. Spodoptera eggs were pipetted through a plastic stencil on a humid gel blotting paper and the plate closed with it. The samples were assessed for mortality, anti-feedant effect and growth inhibition in comparison to untreated samples 6 days after infestation.

[6] = test system: Plutella xylostella (Diamond Back Moth); assay: Example B7: Activity against Plutella xylostella, artificial diet; conditions: 120 h, application rate of 200 ppm, L2 larvae, 5 days after infestation, read-out: effect in at least one of the two categories (mortality or growth inhibition)
Description: 24-well microtiter plates with artificial diet were treated with aqueous test solutions prepared from 10′000 ppm DMSO stock solutions by pipetting. After drying, the plates were infested with L2 larvae (10 to 15 per well). The samples were assessed for mortality and growth inhibition in comparison to untreated samples 5 days after infestation.

[7] = test system: Diabrotica balteata (Corn Root Worm); assay: Example B2: Activity against Diabrotica balteata, maize sprouts sprayed; conditions: 96 h, application rate of 200 ppm, L2 larvae, 4 days after infestation
Description: Maize sprouts, placed on an agar layer in 24-well microtiter plates were treated with aqueous test solutions prepared from 10′000 ppm DMSO stock solutions by spraying. After drying, the plates were infested with L2 larvae (6 to 10 per well). The samples were assessed for mortality 4 days after infestation.

[8] = test system: Spodoptera littoralis (Egyptian Cotton Leaf Worm); assay: Example B8: Activity against Spodoptera littoralis, cotton leaf discs sprayed; conditions: foliar, 72 h, application rate of 200 ppm, L1 larvae, 3 days after infestation, read-out: control (at least one of mortality, anti-feedant effect, and growth inhibition)
Description: Cotton leaf discs were placed on agar in 24-well microtiter plates and sprayed with aqueous test solutions prepared from 10′000 ppm DMSO stock solutions. After drying the leaf discs were infested with five L1 larvae. The samples were assessed for mortality, anti-feedant effect, and growth inhibition in comparison to untreated samples 3 days after infestation. Control of Spodoptera littoralis by a test sample is when at least one of mortality, anti-feedant effect, and growth inhibition is higher than the untreated sample.

[9] = test system: Bemisia tabaci (Cotton White Fly); assay: Example B1: Activity against Bemisia tabaci, cotton leaf discs sprayed; conditions: foliar, 144 h, application rate of 200 ppm, adult white flies, 6 days after incubation
Description: Cotton leaf discs were placed on agar in 24-well microtiter plates and sprayed with aqueous test solutions prepared from 10′000 ppm DMSO stock solutions. After drying the leaf discs were infested with adult white flies. The samples were checked for mortality 6 days after incubation.

[10] = test system: Mysus persicae (Green Peach Aphid); assay: Example B4: Activity against Mysus persicae, sunflower leaf discs sprayed; conditions: Myzus persicae, foliar, 144 h, application rate of 200 ppm, aphid population of mixed ages, 6 days after infestation
Description: Sunflower leaf discs were placed on agar in a 24-well microtiter plate and sprayed with aqueous test solutions prepared from 10′000 ppm DMSO stock solutions. After drying, the leaf discs were infested with an aphid population of mixed ages. The samples were assessed for mortality 6 days after infestation.

[11] = test system: Mysus persicae (Green Peach Aphid); assay: Example B5: Activity against Mysus persicae, roots of pea seedlings in test solutions; conditions: Myzus persicae, 144 h, test rate of 24 ppm, 6 days
Description: Roots of pea seedlings infested with an aphid population of mixed ages were placed directly in the aqueous test solutions prepared from 10′000 DMSO stock solutions. The samples were assessed for mortality 6 days after placing seedlings in test solutions.

[12] = test system: Thrips tabaci (Onion Thrips); assay: Example B11: Activity against Thrips tabaci, feeding/contact activity; conditions: 144 h, application rate of 200 ppm, thrips population of mixed ages, 6 days after infestation
Description: Sunflower leaf discs were placed on agar in 24-well microtiter plates and sprayed with aqueous test solutions prepared from 10′000 ppm DMSO stock solutions. After drying the leaf discs were infested with a thrips population of mixed ages. The samples were assessed for mortality 6 days after infestation.

CCSc1ccccc1-n1cc2cnc(C(F)(F)F)cc2n1 [Compound P1, 2-(2-ethylsulfanylphenyl)-6-(trifluoromethyl)pyrazolo[4,3-c]pyridine]
≥ 80%: percent effect (mortality or growth inhibition) at 200 ppm [1] | mortality at 200 ppm [2] | percent effect (mortality or growth inhibition) at 5 ppm [3] | mortality at 12 ppm [4] | percent control (mortality, anti-feedancy or growth inhibition) at 12.5 ppm [5] | percent effect (mortality or growth inhibition) at 200 ppm [6] | mortality at 200 ppm [7] | mortality at 200 ppm [8] | mortality at 200 ppm [9] | mortality at 200 ppm [10]

CCS(=O)(=O)c1ccccc1-n1cc2cnc(C(F)(F)F)cc2n1 [Compound P2, 2-(2-ethylsulfonylphenyl)-6-(trifluoromethyl)pyrazolo[4,3-c]pyridine]
≥ 80%: percent effect (mortality or growth inhibition) at 200 ppm [6] | mortality at 24 ppm [11] | mortality at 200 ppm [7] | mortality at 200 ppm [8] | mortality at 200 ppm [9] | mortality at 200 ppm [10]

CCSc1cccnc1-n1cc2cnc(C(F)(F)F)cc2n1 [Compound P3, 2-(3-ethylsulfanyl-2-pyridyl)-6-(trifluoromethyl)pyrazolo[4,3-c]pyridine]
≥ 80%: percent effect (mortality or growth inhibition) at 200 ppm [1] | mortality at 12 ppm [4] | percent control (mortality, anti-feedancy or growth inhibition) at 12.5 ppm [5] | percent effect (mortality or growth inhibition) at 200 ppm [6] | mortality at 200 ppm [7] | mortality at 200 ppm [8] | mortality at 200 ppm [10]

CCS(=O)(=O)c1cccnc1-n1cc2cnc(C(F)(F)F)cc2n1 [Compound P4, 2-(3-ethylsulfonyl-2-pyridyl)-6-(trifluoromethyl)pyrazolo[4,3-c]pyridine]
≥ 80%: percent effect (mortality or growth inhibition) at 200 ppm [1] | percent control (mortality, anti-feedancy or growth inhibition) at 12.5 ppm [5] | percent effect (mortality or growth inhibition) at 200 ppm [6] | mortality at 24 ppm [11] | mortality at 200 ppm [7] | mortality at 200 ppm [8] | mortality at 200 ppm [10]

CCS(=O)(=O)c1cccnc1-n1cc2cnc(Br)cc2n1 [Compound P6, 6-bromo-2-(3-ethylsulfonyl-2-pyridyl)pyrazolo[4,3-c]pyridine]
≥ 80%: mortality at 200 ppm [7] | mortality at 200 ppm [10]

CCS(=O)(=O)c1cc(C(F)(F)F)cnc1-n1cc2cnc(C(F)(F)F)cc2n1 [Compound P7, 2-[3-ethylsulfonyl-5-(trifluoromethyl)-2-pyridyl]-6-(trifluoromethyl)pyrazolo[4,3-c]pyridine]
≥ 80%: percent effect (mortality or growth inhibition) at 200 ppm [1] | percent effect (mortality or growth inhibition) at 5 ppm [3] | percent control (mortality, anti-feedancy or growth inhibition) at 12.5 ppm [5] | percent effect (mortality or growth inhibition) at 200 ppm [6] | mortality at 200 ppm [7] | mortality at 200 ppm [8] | mortality at 200 ppm [10]

CCS(=O)(=O)c1cc(Br)cnc1-n1cc2cnc(C(F)(F)F)cc2n1 [Compound P8, 2-(5-bromo-3-ethylsulfonyl-2-pyridyl)-6-(trifluoromethyl)pyrazolo[4,3-c]pyridine]
≥ 80%: percent effect (mortality or growth inhibition) at 200 ppm [1] | percent effect (mortality or growth inhibition) at 200 ppm [6] | mortality at 200 ppm [7] | mortality at 200 ppm [8] | mortality at 200 ppm [10]

CCS(=O)(=O)c1cc(C2CC2)cnc1-n1cc2cnc(C(F)(F)F)cc2n1 [Compound P9, 2-(5-cyclopropyl-3-ethylsulfonyl-2-pyridyl)-6-(trifluoromethyl)pyrazolo[4,3-c]pyridine]
≥ 80%: mortality at 200 ppm [7] | mortality at 200 ppm [8]

CCS(=O)(=O)c1cc(-c2ccccc2)cnc1-n1cc2cnc(C(F)(F)F)cc2n1 [Compound P10, 2-(3-ethylsulfonyl-5-phenyl-2-pyridyl)-6-(trifluoromethyl)pyrazolo[4,3-c]pyridine]
≥ 80%: percent effect (mortality or growth inhibition) at 200 ppm [1] | mortality at 200 ppm [12] | percent effect (mortality or growth inhibition) at 200 ppm [6] | mortality at 200 ppm [7] | mortality at 200 ppm [8] | mortality at 200 ppm [10]

CCS(=O)(=O)c1cccnc1-n1cc2nnc(C(F)(F)F)cc2n1 [PP1, 2-(3-ethylsulfonyl-2-pyridyl)-6-(trifluoromethyl)pyrazolo[4,3-c]pyridazine]
≥ 80%: percent effect (mortality or growth inhibition) at 200 ppm [1] | percent effect (mortality or growth inhibition) at 200 ppm [6] | mortality at 200 ppm [7] | mortality at 200 ppm [8] | mortality at 200 ppm [10]
